The results in this text go back to patent US4857516A, “Coumaran derivatives and their pharmaceutical use” (Takeda Chemical Industries, Ltd., priority 1986, dated 1989).

Usually IC50 stands for the point on the concentration scale where inhibition reaches its midpoint. Broadly, the inhibition is how much of the control response was suppressed.

The test system of test [1] is lipid peroxide production in rat brain homogenates. Kind of test: Inhibitory action on lipid peroxide production in rat brain homogenates. Type of test: biochemical. Conditions: 5 v/v % rat brain homogenate, pH 7.4, 1 hour at 37° C.; read-out: Inhibition (IC50) of lipid peroxide production. As to the method: The male SD rat (12 weeks) brain tissue was extracted under anesthesia after depletion. The extracted brain tissue was used as 5 v/v % homogenate in phosphate buffer (pH 7.4). After incubation of the homogenate for 1 hour at 37° C., the peroxide produced was determined by the thiobarbituric acid method according to the method described in Analytical Biochemistry, 95, 551 (1979).
Before incubation, test compounds were added in 5 v/v % homogenate so that their final concentration becomes 10^-5 M. […]

For test [2], the system named is excitatory behavior induced by FeCl2 in mice. Nature of the test: Excitatory behavior induced by spinal intrathecal injection of FeCl2 in mice. Type of test: in vivo, mouse. Conditions: 100 mg/kg p.o. As to the method:
Male Slc:ICP mice (5 weeks) were used. Each group consisted of 10 mice. 5 μl of 50 mM FeCl2 in saline was injected into spinal subarchnoid space betwen the 1st sacral and the 6th lumbar segment, the behavioral responses were observed from 15 min. to 1 hr. after the intrathecal injection of FeCl2 and scored as follows.
Score Behavioral responses
0: normal (no abnormal behavior)
1: vigorously biting lower abdomen or lower extremities
(a) extremely biting lower body with rolling
(b) hyperreactivity and agressive to external stmuli
at least one of above three behavioral changes were observed
4: tonic convulsion or paralysis of lower extremities.
The test compounds (100 mg/kg) were orally administered 30 min. prior to FeCl2 injection.

Test [3] deals with neurological deficits caused by spinal cord compression in rats. Nature of the test: Functional neurologic impairment induced by spinal cord compression in rats. Conditions: 40 mg/kg, p.o. Type of test: in vivo, rat. An excerpt: (§1) Male Jcl:Wistar rats, weighing about 350 g at the time of spinal cord compression were used. A spinal cord injury was produced in rats by compressing the spinal cord with a stainless screw of 2.8 mm length and 2 mm diameter at thoracic 11 (T11) level under pentobarbital anesthesia. On the day of the operation, the screw was placed so that the end was just above the subarachnoid membrane of the spinal cord.
(§2) On the following day, the screw was completely tightened to compress the spinal cord without penetrating the subarachnoid membrane. After compression of the spinal cord for 60 min., the screw was removed. Test compounds were given orally 5 min. after the removal of screw.
0; flaccid paralysis, no movement of hind limbs, no response to pinching of tail with foreceps (i.e. movement of fore limbs, biting foreceps, vocalization)
1; no movement of hind limbs, but responds to pinching of tail with foreceps
2; uncoordinated movement (loss of coordination between limbs), but can not support own weight
3; movement with an impairment (general coordination between limbs), but can not support own weight
4; walking with a slight ataxia of the hind limbs, but can support own weight
(§3) The median neurological score of the drug-treated groups were compared with that saline-teated control group. Statistical analysis was done using the Mann-Whitney U-test. The incidence of rats showing urinary incontinence was also compared by the .chi.^2 -test.

In test [4] the test system is generation of HHT in rat platelets. Nature of the test: Inhibitory effect on the generation of 12-hydroxyheptadeca-5,8,10-trienoic acid (HHT) in rat platelets. Type of test: cell-based. Particulars: rat platelet rich plasma. As to the method:
Blood was collected in 3.2 v/v % sodium citrate (0.8 ml for 7.2 ml of blood) from the abdominal aorta of male Wister rats (Jcl, 12 to 15 weeks) anesthesized with pentobarbital. Platelet rich plasma (PRP) was obtained by centrifuging the blood at 800 rpm for 10 min at room temperature. Platelet poor plasma (PPP) was prepared by centrifuging the remaining blood at 3,000 rpm for 10 min. The platelet concentration of PRP was adjusted to 1,000,000/μl with PPP. […]
The reaction was stopped by adding 100 ml of ethanol and the mixture was allowed to stand for 10 min. at room temperature. The reaction mixture was centrifuged at 2,000 rpm for 10 min. and the supernatant obtained was evaporated. To the concentrate, 0.2 ml of 60 v/v % aqueous ethanol was added.
100 μl of this solution was subjected to high performance liquid chromatography for quantitative analysis of HHT. The amount of HHT was determined by measurement of absorbance at 237 nm with a UV absorption monitor.
The inhibitory effect (IE) on the generation of HHT is expressed by (1-b/a)×100, wherein a is the peak height or the peak area corrected with the peak due to the internal standard in the absence of the compound (I) or a pharmaceutically acceptable salt thereof, and b is the peak height or the peak area corrected with the peak due to the internal standard in the compound (I) or a pharmaceutically acceptable salt thereof.

A further test deals with T1, 5-lipoxygenase (Rattus norvegicus, UniProt P12527).
T1 construct: endogenous in cells; host or cells: RBL-1 (rat basophilic leukemia cells)
T1 sequence (P12527 1-673): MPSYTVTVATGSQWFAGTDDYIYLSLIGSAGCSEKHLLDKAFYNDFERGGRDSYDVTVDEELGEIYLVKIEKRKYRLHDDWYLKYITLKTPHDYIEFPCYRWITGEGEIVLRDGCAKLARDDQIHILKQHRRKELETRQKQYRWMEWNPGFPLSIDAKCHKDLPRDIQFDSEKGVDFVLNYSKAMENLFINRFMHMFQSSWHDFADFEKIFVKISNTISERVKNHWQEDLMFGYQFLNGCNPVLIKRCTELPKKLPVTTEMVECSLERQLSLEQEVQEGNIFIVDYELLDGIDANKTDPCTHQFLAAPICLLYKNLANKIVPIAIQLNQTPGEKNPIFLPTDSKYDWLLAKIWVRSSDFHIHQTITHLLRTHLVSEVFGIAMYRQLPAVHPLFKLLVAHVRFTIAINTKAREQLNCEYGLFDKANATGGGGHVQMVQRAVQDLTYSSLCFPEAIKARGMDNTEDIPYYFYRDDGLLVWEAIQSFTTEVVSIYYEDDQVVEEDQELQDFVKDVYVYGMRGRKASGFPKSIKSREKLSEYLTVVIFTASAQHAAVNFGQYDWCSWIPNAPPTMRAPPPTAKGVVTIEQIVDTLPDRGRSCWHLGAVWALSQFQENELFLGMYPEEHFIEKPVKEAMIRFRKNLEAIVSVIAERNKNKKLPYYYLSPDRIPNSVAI
Kind of test: Inhibition of 5-lipoxygenase (5-HETE production in RBL-1 cells). Type of test: cell-based. As to the method:
10^7 RBL-1 cells (rat basophilic leukemia cells) were suspended in 0.5 ml of MCM (mast cell medium). […] Then 4 ml of ethanol was added, and the mixture was well shaken and kept at room temperature for 10 min.
The mixture was centrifuged for 10 min. (2000 rpm), and the supernatant was separated. The supernatant obtained was concentrated to dryness under reduced pressure. To the residue 0.5 ml of 60 v/v % aqueous methanol was added. One hundred μl of this solution was subjected to high performance liquid chromatography for quantitative analysis of 5-HETE (5-hydroxyeicosatetraenoic acid). The amount of 5-HETE was determined by measurement of the absorbance at 237 nm with a UV absorption monitor.
The inhibitory effect (IE) of production of 5-HETE is expressed by (1-b/a)×100, wherein a is the peak height or the area corrected with the peak due to the internal standard in the absence of the compound (I) or a pharmaceutically acceptable salt thereof, and b is the peak height or peak area corrected with the peak due to the internal standard in the presence of the compound (I) or a pharmaceutically acceptable salt thereof.

For test [5], the system named is urinary incontinence in rats with spinal cord compression. Nature of the test: Incidence of rats showing urinary incontinence (spinal cord compression). Details: Incidence of rats showing urinary incontinence: unit not given here. Type of test: in vivo, rat. Conditions: 40 mg/kg, p.o.
Text: as §1, §2, §3

[6] abbreviates: day 3, Ex. 7 *p < 0.05, Ex. 20 **p < 0.01.

Regarding `Cc1c(C)c2c(c(C)c1O)C(c1ccc(F)cc1)C(C)(C)O2` (stereo not drawn) [Example 7, 3-(4-fluorophenyl)-5-hydroxy-2,2,4,6,7-pentamethyl-2,3-dihydrobenzofuran], the concentration for half-maximal inhibition (IC50) in test [1] is 230 nM. For the same molecule, the “Score (mean behavioral score)” value in test [2] (30 min. prior to FeCl2, 0 normal to 5 death) is 0.3. In addition, the “Percent inhibition (of mean score)” value in test [2] (vs vehicle p.o.) is 93%. In addition, the “neurological score (median value)” value in test [3] (day 1, 0 flaccid paralysis to 5 normal gait, Ex. 20 **p < 0.01) was found to be 2; in test [3] (setting [6]), 2; in test [3] (day 7, Ex. 20 **p < 0.01), 3; in test [3] (day 14, Ex. 20 *p < 0.05), 4. For the same molecule, the “neurological impairment caused by spinal cord compression (in words)” value in test [3] (Table 4(III)) is listed as “ameliorated the neurological impairment”. Further, testing at 100 µM in test [4] (10^-4 M) gave an inhibition of 49%. In test [4] (10^-5 M), this molecule displayed an inhibition at 10 µM of 35%. Moreover, on 5-lipoxygenase (10^-6 M), the inhibition at 1 µM was 99%. The molecule also displayed an inhibition at 0.1 µM against 5-lipoxygenase (10^-7 M) of 43%. Further, at 5-lipoxygenase (10^-8 M), 0.01 µM produced 13% inhibition. Besides, the “Incidence of rats showing urinary incontinence” value in test [5] (day 1, Ex. 20 **p < 0.01) was 42.9; in test [5] (day 2, Ex. 20 **p < 0.01), 14.3; in test [5] (setting [6]), 7.1; in test [5] (day 5, Ex. 20 **p < 0.01) it was 7.1; in test [5] (day 7, Ex. 7 *p < 0.05), 0; in test [5] (day 10), 0. The “Incidence of rats showing urinary incontinence” value in test [5] (day 14) is given as 0. The “incidence of urinary incontinence (in words)” value in test [5] (Table 4(IV)) is reported as “reduced the incidence of urinary incontinence”.
